Laboratory results: patent US12343332B2, “Treatment of a bacterial vaginal infection” (Adamed Pharma S.A., priority 2017, dated 2025)
Converted amounts (≈) assume the structure as drawn. “Also recorded” adds a separate entry of the source. Like-named read-outs stand apart in the source and are kept apart here.

Legend:
Type in all cases: cell-based
[1] = test system: Atopobium vaginae ATCC BAA 55; assay: MIC, macro dilution method for bacteria in a solid medium; details: for antibacterial activity (in words): against Atopobium vaginae; for MIC: Fannyhessea vaginae, BAA55, 168 h, read-out: MIC value
Protocol: (§1) Strains used in the study were Gardnerella vaginalis ATCC 14018, Atopobium vaginae ATCC BAA 55, Candida albicans ATCC 90028, and Candida [NT] 2001. […] To perform the assay, a pure, 48-hour strain reference culture was used, from which a bacterial suspension with a density of 1.0 McFarland in sterile saline was prepared. The suspension was plated onto Schaedler agar medium supplemented with 5% sheep blood (Becton Dickinson) and a test compound at the appropriate concentration. After incubation, the value MIC was read. Colony growth on the plate indicated no activity of the test compound at tested concentration. As the MIC value, the last lowest concentration as taken, at which there was no microbial growth. [table]

[2] = test system: Gardnerella vaginalis ATCC 14018; assay: as above; details: for antibacterial activity (in words): against Gardnerella vaginalis; for MIC: Gardnerella vaginalis, ATCC14018, 72 h, read-out: MIC value
Protocol: as §1

[3] = test system: Candida albicans ATCC 90028; assay: MIC, macro dilution method for yeast-like fungi in a liquid medium; details: for MIC: read-out: MIC value
Protocol: (§2) Strains used in the study were Gardnerella vaginalis ATCC 14018, Atopobium vaginae ATCC BAA 55, Candida albicans ATCC 90028, and Candida [NT] 2001. […] Liquid medium RPMI 1640 (Sigma-Aldrich) was used for fungi of the species Candida albicans ATCC 90028, and Candida [NT] 2001, in which 15 serial dilution were prepared in a range 500 μg/mL-0.03 μg/mL. From a pure 24-hour culture on Sabouraud solid medium, a fungal suspension having density of 0.5 McFarland in sterile saline. Next, the suspension was diluted, and was introduced into the RPMI 1640 medium yielding final concentrations of fungi 10^5 CFU/mL. Incubation was carried out for 24 hours in aerobic conditions in 37° C. Colony growth on the plate indicated no activity of the test compound at tested concentration. As the MIC value, the last lowest concentration as taken, at which there was no microbial growth

[4] = test system: Candida glabrata ATCC 2001; assay: as above; details: for MIC: Nakaseomyces glabratus, read-out: MIC value
Protocol: as §2

[5] = test system: Atopobium vaginae ATCC BAA 55; assay: Synergistic action at 2-fold lower concentrations than MIC, solid medium; details: for Synergy with Metronidazole / Synergy with Nystatin: Atopobium vaginae ATCC BAA 55, Furazidin 0.03 mg/L, Nitrofurantoin 0.98 mg/L, Nifuratel 1.95 mg/L; for Synergy with Metronidazole: Metronidazole 0.5 mg/L; for Synergy with Nystatin: Nystatin 250 mg/L; for synergistic effects with metronidazole (in words): against Atopobium vaginae
Protocol: (§3) To perform the assay, a pure, 48-hour strain reference culture was used, from which a bacterial suspension with a density of 1.0 McFarland in sterile saline was prepared. The suspension was plated onto Schaedler agar medium supplemented with 5% sheep blood (Becton Dickinson) and a test compound at the appropriate concentration. After incubation, the value MIC was read. Colony growth on the plate indicated no activity of the test compound at tested concentration. As the MIC value, the last lowest concentration as taken, at which there was no microbial growth. […] Lack of bacterial growth on the plate was interpreted as a synergic action. [table]

[6] = test system: Gardnerella vaginalis ATCC 14018; assay: as above; details: for Synergy with Metronidazole / Synergy with Nystatin: Gardnerella vaginalis ATCC 14018, Furazidin 0.25 mg/L, Nitrofurantoin 0.5 mg/L, Nifuratel 0.98 mg/L; for Synergy with Metronidazole: Metronidazole 125 mg/L; for Synergy with Nystatin: Nystatin 250 mg/L; for synergistic effects with metronidazole (in words): against Gardnerella vaginalis
Protocol: as §3

[7] = test system: Candida albicans ATCC 90028; assay: Synergistic action at 2-fold lower concentrations than MIC, liquid medium; details: for Synergy with Metronidazole / Synergy with Nystatin: Candida albicans ATCC 90028, each nitrofuran 250 mg/L; for Synergy with Metronidazole: Metronidazole 250 mg/L; for Synergy with Nystatin: Nystatin 0.98 mg/L
Protocol: (§4) Liquid medium RPMI 1640 (Sigma-Aldrich) was used for fungi of the species Candida albicans ATCC 90028, and Candida [NT] 2001, in which 15 serial dilution were prepared in a range 500 μg/mL-0.03 μg/mL. From a pure 24-hour culture on Sabouraud solid medium, a fungal suspension having density of 0.5 McFarland in sterile saline. Next, the suspension was diluted, and was introduced into the RPMI 1640 medium yielding final concentrations of fungi 10^5 CFU/mL. Incubation was carried out for 24 hours in aerobic conditions in 37° C. Colony growth on the plate indicated no activity of the test compound at tested concentration. As the MIC value, the last lowest concentration as taken, at which there was no microbial growth […] Lack of fungal growth on the plate was interpreted as a synergic action.

[8] = test system: Candida glabrata ATCC 2001; assay: as above; details: for Synergy with Metronidazole / Synergy with Nystatin: Candida glabrata ATCC 2001, each nitrofuran 250 mg/L; for Synergy with Metronidazole: Metronidazole 125 mg/L; for Synergy with Nystatin: Nystatin 0.98 mg/L
Protocol: as §4

[9] = Atopobium vaginae ATCC BAA 55, Schaedler agar, anaerobic, 37° C., 7 days
[10] = Gardnerella vaginalis ATCC 14018, Schaedler agar, microaerophilic, 37° C., 72 hours
[11] = Candida albicans ATCC 90028, RPMI 1640, 24 hours, aerobic, 37° C.
[12] = Candida glabrata ATCC 2001, RPMI 1640, 24 hours, aerobic, 37° C.
[13] = ATCC90028, Candida albicans ATCC 90028, RPMI 1640, 24 hours, aerobic, 37° C.
[14] = ATCC2001, Candida glabrata ATCC 2001, RPMI 1640, 24 hours, aerobic, 37° C.

Compound	MIC value [1, 9]	MIC value [2, 10]	MIC [1, 9]	MIC [2, 10]	MIC [3, 13]	MIC [4, 14]	antibacterial activity (in words) [1]	antibacterial activity (in words) [2]	MIC value [3, 11]	MIC value [4, 12]	Synergy with Metronidazole [5]	Synergy with Nystatin [5]	synergistic effects with metronidazole (in words) [5]	Synergy with Metronidazole [6]	Synergy with Nystatin [6]	synergistic effects with metronidazole (in words) [6]	Synergy with Metronidazole [7]	Synergy with Nystatin [7]	Synergy with Metronidazole [8]	Synergy with Nystatin [8]	other results
CCC[C@@H]1C[C@@H](C(=O)N[C@@H]([C@H]2O[C@H](SC)[C@H](O)[C@@H](O)[C@H]2O)[C@H](C)Cl)N(C)C1 [Clindamycin]	<0.03 µg/mL	1.95 µg/mL (≈ 4.59 µM)	< 0.03 µg/mL	< 1.95 µg/mL																	
CSCC1CN(/N=C/c2ccc([N+](=O)[O-])o2)C(=O)O1 (stereo not shown) [Nifuratel]							antibacterial activity	antibacterial activity			−	+		−	+		+	−	+	−	MIC [1]: 3.9 µg/mL (≈ 13.7 µM); MIC [2]: 1.95 µg/mL (≈ 6.84 µM); MIC ([3]; Candida albicans, ATCC90028, 24 h): > 500 µg/mL; MIC ([4]; ATCC2001, 24 h): 500 µg/mL (≈ 1750 µM)
Cc1ncc([N+](=O)[O-])n1CCO [Metronidazol, Metronidazole]			0.98 µg/mL (≈ 5.73 µM)	250 µg/mL (≈ 1460 µM)	500 µg/mL (≈ 2920 µM)	250 µg/mL (≈ 1460 µM)	antibacterial activity	antibacterial activity													
C[C@@H]1[C@H](O)[C@@H](C)/C=C/C=C/CC/C=C/C=C/C=C/C=C/C(O[C@H]2O[C@H](C)[C@@H](O)[C@H](N)[C@@H]2O)CC2O[C@](O)(CC(O)C(O)CCC(O)CC(O)CC(O)CC(=O)O[C@H]1C)CC(O)C2C(=O)O (stereo partly shown) [Nystatin]	500 µg/mL (≈ 540 µM)	500 µg/mL (≈ 540 µM)							1.98 µg/mL (≈ 2.14 µM)	1.98 µg/mL (≈ 2.14 µM)											

The next lines start with results.

MIC value [1, 9]	MIC value [2, 10]	MIC [1, 9]	MIC [2, 10]	MIC [3, 13]	MIC [4, 14]	Compound	antibacterial activity (in words) [1]	antibacterial activity (in words) [2]	MIC value [3, 11]	MIC value [4, 12]	Synergy with Metronidazole [5]	Synergy with Nystatin [5]	synergistic effects with metronidazole (in words) [5]	Synergy with Metronidazole [6]	Synergy with Nystatin [6]	synergistic effects with metronidazole (in words) [6]	Synergy with Metronidazole [7]	Synergy with Nystatin [7]	Synergy with Metronidazole [8]	Synergy with Nystatin [8]	other results
1.95 µg/mL (≈ 8.19 µM)	0.98 µg/mL (≈ 4.11 µM)					O=C1CN(/N=C/c2ccc([N+](=O)[O-])o2)C(=O)N1 [Nitrofurantion, Nitrofurantoin]	antibacterial activity	antibacterial activity	500 µg/mL (≈ 2100 µM)	500 µg/mL (≈ 2100 µM)	+	+	synergistic effects	+	+	synergistic effects	+	−	+	−	
<0.03 µg/mL	0.49 µg/mL (≈ 1.85 µM)	< 0.03 µg/mL	< 0.49 µg/mL	500 µg/mL (≈ 1890 µM)	500 µg/mL (≈ 1890 µM)	O=C1CN(/N=C/C=C/c2ccc([N+](=O)[O-])o2)C(=O)N1 [Furazidin]	highest antibacterial activity in the group of nitrofuran derivatives	highest antibacterial activity in the group of nitrofuran derivatives			+	+	synergy; also recorded: synergistic effects	+	+	synergy; also recorded: synergistic effects	+	−	+	+	synergistic effects with nystatin (in words) ([5]; on Atopobium vaginae): synergistic effect; synergistic effects with nystatin (in words) ([6]; on Gardnerella vaginalis): synergistic effect; synergistic effects with metronidazole (in words) ([7]; against Candida albicans): synergy; synergistic effects with metronidazole (in words) ([8]; against Candida glabrata): synergy; synergistic effects with nystatin (in words) ([8]; against Candida glabrata): synergistic effects
